Measurements as given in patent publication EP1180513A1, “CYCLIC AMIDE COMPOUNDS, PROCESS FOR THE PREPARATION OF THE SAME AND USES THEREOF” (Takeda Chemical Industries, Ltd., priority 1999, dated 2000).
Where a name gives a salt, the structure may show the parent alone.

target: T1, human CCR5 (Homo sapiens, UniProt P51681); experiment: CCR5 binding inhibition: [125I]-RANTES binding to CHO/CCR5 cells; details: Test Compound 1 µM, 100 pM [125I]-RANTES as ligand, room temperature, 40 minutes, read-out: Inhibitory rate (%) at 1.0 µM
T1 construct: expressed in transfected cells
Method: CHO-K1 cells were grown in 750ml of tissue culture flask (Becton Dickinson) using Ham's F12 medium (Nihon Pharmaceutical) containing 10% fetal calf serum (Life Tech Oriental) and took off with 0.5 g/L trypsin-0.2 g/L EDTA (Life Tech Oriental). The cells were washed with PBS (Life Tech Oriental), centrifuged (1000 rpm, 5 minutes), and suspended in PBS. With using Gene Pulser (Bio-Rad Laboratories), DNA was introduced into the cells under the conditions shown below. That is, to the cuvette of 0.4 cm gap were added 8×10^6 cells and 10 µg of plasmid pCKR5 for expression of human CCR5, and electroporation was carried out under 0.25 kV of voltage and 960 µF of capacitance. The cells were transferred into Ham's F12 medium containing 10% fetal calf serum, and cultivated for 24 hours. The cells were again took off and centrifuged, and suspended in Ham's F12 medium containing 10% fetal calf serum and 500 µg/ml of geneticin (Life Tech Oriental). The suspension was diluted to give 10^4 cells/ml of the suspension, which was inoculated on 96 well plate (Becton Dickinson) to give resistant cells. The resulting geneticin resistant cells were cultivated in 96 well plate (Becton Dickinson), and cells expressing CCR5 were selected from the geneticin resistant cells. That is, in assay buffer (Ham's F12 medium containing 0.5% BSA and 20 mM HEPES (Wako Pure Chemical, pH 7.2)) to which was added 200 pM of [^125I]-RANTES (Amersham) as ligand, binding reaction was carried out at room temperature for 40 minutes, and the buffer was washed with cooled PBS. To the buffer was added 50 µl/well of 1M NaOH, and the mixture was stirred. Radioactivity was determined with γ-counter to select CHO/CCR5 cells which specifically bind to the ligand.
The CHO/CCR5 were inoculated on 96 well microplate (5×10^4 cells/well) and cultivated for 24 hours. The medium was removed by means of suction, and to each well was added assay buffer containing Test Compound (1 µM) and then 100 pM of [^125I]-RANTES (Amersham) as ligand. Binding assay was carried out at room temperature for 40 minutes, and assay buffer was removed by means of suction. Each well was washed twice with cooled PBS, and 200 µl of Microscint-20 (Packard Instrument, Inc.) was added to each well. Radio-activity was determined with Top-Count (Packard Instrument, Inc.).
According to the method described above, inhibition rate of Test Compound to CCR5 binding.

T1 sequence (P51681 whole entry): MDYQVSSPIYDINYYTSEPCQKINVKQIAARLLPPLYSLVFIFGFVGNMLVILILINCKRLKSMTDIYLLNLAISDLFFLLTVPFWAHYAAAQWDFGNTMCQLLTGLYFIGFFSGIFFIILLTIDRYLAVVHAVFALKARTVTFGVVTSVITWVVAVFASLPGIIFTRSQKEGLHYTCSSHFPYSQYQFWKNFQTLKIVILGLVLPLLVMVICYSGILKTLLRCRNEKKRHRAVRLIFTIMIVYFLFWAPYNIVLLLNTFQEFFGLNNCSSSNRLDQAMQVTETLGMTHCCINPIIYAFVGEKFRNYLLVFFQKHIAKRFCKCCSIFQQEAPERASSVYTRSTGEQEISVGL

Structure (SMILES) | inhibition at 1 µM [%]
CN1CC(C(=O)N(CCCN2CCC(Cc3ccccc3)CC2)c2ccccc2)CC1=O (stereo not drawn) [Example 1, N-[3-(4-benzyl-1-piperidinyl)propyl]-1-methyl-5-oxo-N-phenyl-3-pyrrolidinecarboxamide hydrochloride] | 57
CN1CC(C(=O)N(CCCN2CCC3(C=Cc4ccccc43)CC2)c2ccccc2)CC1=O (stereo not drawn) [Example 8, N-[3-(indene-1-spiro-4'-piperidin-1'-yl)propyl]-1-methyl-5-oxo-N-phenyl-3-pyrrolidinecarboxamide fumarate] | 24
CN1CC(C(=O)N(CCCN2CCC(C(=O)c3ccc(F)cc3)CC2)c2ccccc2)CC1=O (stereo not drawn) [Example 13, N-{3-[4-(4-fluorobenzoyl) -1-piperidinyl]propyl}-1-methyl-5-oxo-N-phenyl-3-pyrrolidinecarboxamide] | 40
CN1CC(C(=O)N(CCCCN2CCC(C(=O)c3ccc(F)cc3)CC2)c2ccccc2)CC1=O (stereo not drawn) [Example 17, N-{4-[4-(4-fluorobenzoyl)-1-piperidinyl]butyl}-1-methyl-5-oxo-N-phenyl-3-pyrrolidinecarboxamide] | 22
CN1CC(C(=O)N(CCCN2CCC(Cc3ccccc3)CC2)c2ccc(Cl)c(Cl)c2)CC1=O (stereo not drawn) [Example 23, N-[3-(4-benzyl-1-piperidinyl)propyl]-N-(3,4-dichlorophenyl)-1-methyl-5-oxo-3-pyrrolidinecarboxamide hydrochloride] | 95
CN1CC(C(=O)N(CCCN2CCC(Cc3ccccc3)CC2)c2cccc(Cl)c2)CC1=O (stereo not drawn) [Example 38, N-[3-(4-benzyl-1-piperidinyl)propyl]-N-(3-chlorophenyl)-1-methyl-5-oxo-3-pyrrolidinecarboxamide hydrochloride] | 82
O=C1CC(C(=O)N(CCCN2CCC(Cc3ccccc3)CC2)c2ccccc2)CN1Cc1ccccc1 (stereo not drawn) [Example 51, 1-benzyl-N-[3-(4-benzyl-1-piperidinyl)propyl]-5-oxo-N-phenyl-3-pyrrolidinecarboxamide] | 92
O=C1CC(C(=O)N(CCCN2CCC(Cc3ccccc3)CC2)c2ccccc2)CN1c1ccccc1 (stereo not drawn) [Example 52, N-[3-(4-benzyl-1-piperidinyl)propyl]-5-oxo-N,1-diphenyl-3-pyrrolidinecarboxamide] | 76
CN1CC(C(=O)N(CCCN2CCC(Cc3ccccc3)CC2)Cc2ccccc2)CC1=O (stereo not drawn) [Example 62, N-benzyl-N-[3-(4-benzyl-1-piperidinyl)propyl]-1-methyl-5-oxo-3-pyrrolidinecarboxamide] | 67
O=C1CC(C(=O)N(CCCN2CCC(Cc3ccccc3)CC2)c2ccccc2)CN1Cc1ccccc1Cl (stereo not drawn) [Example 76, N-[3-(4-benzyl-1-piperidinyl)propyl]-1-(2-chlorobenzyl)-5-oxo-N-phenyl-3-pyrrolidinecarboxamide] | 91
CN1CC(C(=O)N(CCCN2CCC(Cc3ccc(F)cc3)CC2)c2ccc(Cl)c(Cl)c2)CC1=O (stereo not drawn) [Example 84, N-(3,4-dichlorophenyl)-N-{3-[4-(4-fluorobenzyl)-1-piperidinyl]propyl}-1-methyl-5-oxo-3-pyrrolidinecarboxamide hydrochloride] | 92
O=C1CC(C(=O)N(CCCN2CCC(Cc3ccccc3)CC2)c2ccccc2)CN1CC(F)(F)F (stereo not drawn) [Example 93, N-[3-(4-benzyl-1-piperidinyl)propyl]-5-oxo-N-phenyl-1-(2,2,2-trifluoroethyl)-3-pyrrolidinecarboxamide] | 90
